Assay results published in patent US10508109B2 (priority 2015, dated 2019).
Where a name gives a salt, the structure may show the parent alone. Read-outs that look alike come from different tables or passages of the source.

Assays:
[1] = test system: HCT-116; experiment: Cell-based assay, anti-proliferative activity (Cell Counting Kit-8, 72 hours); conditions: Homo sapiens, read-out: IC50 (μM) HCT-116
Description: (§1) Active candidate inhibitors against SUV39H2 were evaluated for their target-specific cytotoxicity using A549, HCT-116, HFL1, CCD-18Co and PC14. 100 micro-L of cell suspension was seeded onto 96-well microtiter plate (ViewPlate-96FTC, PerkinElmer). The initial cell concentration of A549, HCT-116, HFL1, CCD-18Co and PC14 were 3,000 cells/well, 2,000 cells/well and 2,500 cells/well, respectively. Cellular growth was determined using Cell Counting Kit-8 (DOJINDO) at 72 hours after the exposure of the candidate inhibitors. IC50 was used as an indicator of the anti-proliferative activity of the inhibitors, and calculated by serial dilution method (0, 1.5625, 3.125, 6.25, 12.5, 25, 50, and 100 micro-M). Accurate IC50 values were calculated as described previously.

[2] = test system: CCD-18Co; experiment: as above; conditions: Homo sapiens, read-out: IC50 (μM) CCD-18Co
Description: as §1

[3] = test system: HFL1; experiment: as above; conditions: Homo sapiens, read-out: IC50 (μM) HFL1
Description: as §1

[4] = test system: A549; experiment: as above; conditions: Homo sapiens, read-out: IC50 (μM) A549
Description: 100 micro-L of cell suspension was seeded onto 96-well microtiter plate (ViewPlate-96FTC, PerkinElmer). […] Cellular growth was determined using Cell Counting Kit-8 (DOJINDO) at 72 hours after the exposure of the candidate inhibitors. […] Accurate IC50 values were calculated as described previously.

[5] = molecular target: SUV39H2 (Homo sapiens (Human), UniProt Q9H5I1); conditions: read-out: IC50 (μM) Suv 39H2 assay
Chain of SUV39H2 (Q9H5I1 whole entry): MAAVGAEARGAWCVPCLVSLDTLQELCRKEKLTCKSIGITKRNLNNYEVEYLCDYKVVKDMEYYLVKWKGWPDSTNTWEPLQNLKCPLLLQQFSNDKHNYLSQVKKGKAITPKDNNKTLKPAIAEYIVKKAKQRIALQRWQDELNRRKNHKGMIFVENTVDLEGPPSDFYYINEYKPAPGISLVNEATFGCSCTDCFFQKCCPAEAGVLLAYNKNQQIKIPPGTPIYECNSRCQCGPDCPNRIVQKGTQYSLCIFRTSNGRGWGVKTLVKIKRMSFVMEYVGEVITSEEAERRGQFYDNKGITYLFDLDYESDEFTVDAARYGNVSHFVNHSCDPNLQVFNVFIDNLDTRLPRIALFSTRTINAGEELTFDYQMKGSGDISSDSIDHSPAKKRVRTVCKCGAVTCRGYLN

[6] = HCT-116 cells, Cell Counting Kit-8, 72 hours
[7] = CCD-18Co cells, Cell Counting Kit-8, 72 hours
[8] = HFL1 cells, Cell Counting Kit-8, 72 hours
[9] = A549 cells, Cell Counting Kit-8, 72 hours

Compound: COC(=O)NCCNc1cn2cc(-c3cc(Cl)c(OC)cc3OC)nc2cc1OC [Example 91, methyl (2-((2-(5-chloro-2,4-dimethoxyphenyl)-7-methoxyimidazo[1,2-a]-pyridin-6-yl)amino)ethyl)carbamate]
- IC50 [1, 6]: 2.2 µM
- IC50 [2, 7]: 4.7 µM
- IC50 [3, 8]: 2.9 µM
- IC50 [4, 9]: 3.1 µM
- IC50 ([5]; enzyme assay): 0.0263 µM

Compound: COc1cc(OC)c(-c2cn3ccc(N4CCC(NC(=O)OC(C)(C)C)C4)nc3n2)cc1C#N (stereo not shown) [Example 74, tert-butyl (1-(2-(5-cyano-2,4-dimethoxyphenyl)imidazo[1,2-a]pyrimidin-7-yl)pyrrolidin-3-yl) carbamate]
- IC50 [1, 6]: 8.1 µM
- IC50 [2, 7]: 6.4 µM
- IC50 [3, 8]: 3.9 µM
- IC50 [4, 9]: 8.5 µM
- IC50 ([5]; enzyme assay): 0.0303 µM

Compound: COc1cc(OC)c(-c2cn3ccc(N4CCC(CNC(=O)OC(C)(C)C)CC4)nc3n2)cc1Cl [Example 32, tert-butyl ((1-(2-(5-chloro-2,4-dimethoxyphenyl)imidazo[1,2-a]pyrimidin-7-yl)piperidin-4-yl)methyl)carbamate]
- IC50 [1, 6]: 8.4 µM
- IC50 [2, 7]: 6.3 µM
- IC50 [3, 8]: 4.6 µM
- IC50 [4, 9]: 6.7 µM
- IC50 ([5]; enzyme assay): 0.037 µM

Compound: COc1cc(OC)c(-c2cn3ccc(N4CCC(NC(=O)OC(C)(C)C)CC4)nc3n2)cc1Cl [Example 36, tert-butyl (1-(2-(5-chloro-2,4-dimethoxyphenyl)imidazo[1,2-a]pyrimidin-7-yl)piperidin-4-yl)carbamate]
- IC50 [1, 6]: 4.1 µM
- IC50 [2, 7]: 3.8 µM
- IC50 [3, 8]: 3.2 µM
- IC50 [4, 9]: 5.6 µM
- IC50 ([5]; enzyme assay): 0.0552 µM

Compound: COc1cc(OC)c(-c2cn3ccc(N4CCC(NC(=O)OC(C)(C)C)C4)nc3n2)cc1Cl (stereo not shown) [Example 26, tert-butyl (1-(2-(5-chloro-2,4-dimethoxyphenyl)imidazo[1,2-a]pyrimidin-7-yl)pyrrolidin-3-yl)carbamate]
- IC50 [1, 6]: 13 µM
- IC50 [2, 7]: 7.9 µM
- IC50 [3, 8]: 6.7 µM
- IC50 [4, 9]: 7.9 µM
- IC50 ([5]; enzyme assay): 0.017 µM

Compound: COc1cc(OC)c(-c2cn3ccc(N4CCOCC4)cc3n2)cc1C#N [Example 93, 2,4-Dimethoxy-5-(7-morpholinoimidazo[1,2-a]pyridin-2-yl)benzonitrile]
- IC50 ([1]; HCT-116, 72 h): 6.4 µM
- IC50 ([2]; CCD-18Co, 72 h): 6.3 µM
- IC50 ([3]; HFL1, 72 h): 9.6 µM
- IC50 ([4]; A549, 72 h): 6.4 µM
- IC50 ([5]; enzyme assay): 0.0119 µM

Compound: COc1cc(OC)c(-c2cn3ccc(C4=CCN(CCC#N)CC4)cc3n2)cc1Cl [Example 109, 3-(4-(2-(5-chloro-2,4-dimethoxyphenyl)imidazo[1,2-a]pyridin-7-yl)-5,6-dihydropyridin-1(2H)-yl)propanenitrile]
- IC50 [1, 6]: 5.1 µM
- IC50 [2, 7]: 2.6 µM
- IC50 [3, 8]: 1.8 µM
- IC50 [4, 9]: 5.9 µM
- IC50 ([5]; enzyme assay): 0.0417 µM

Compound: COc1cc(OC)c(-c2cn3cc(C4=CCNCC4)c(N4CCOCC4)cc3n2)cc1Cl [Example 101, 4-(2-(5-chloro-2,4-dimethoxyphenyl)-6-(1,2,3,6-tetrahydropyridin-4-yl)imidazo[1,2-a]pyridin-7-yl)morpholine]
- IC50 [1, 6]: 8.6 µM
- IC50 [2, 7]: 6.6 µM
- IC50 [3, 8]: 7.5 µM
- IC50 [4, 9]: 8.3 µM
- IC50 ([5]; enzyme assay): 0.0105 µM

Compound: COc1cc(OC)c(-c2cn3ccc(N4CCC(N)CC4)nc3n2)cc1Cl [Example 42, 1-(2-(5-chloro-2,4-dimethoxyphenyl)imidazo[1,2-a]pyrimidin-7-yl)-piperidin-4-amine hydrochloride]
- IC50 ([1]; HCT-116, 72 h): 6.6 µM
- IC50 ([2]; CCD-18Co, 72 h): 13 µM
- IC50 ([3]; HFL1, 72 h): 4.2 µM
- IC50 ([4]; A549, 72 h): 10 µM
- IC50 [5]: 0.079 µM

Compound: COc1cc(OC)c(-c2cn3ccc(N4CC[C@H](N)C4)nc3n2)cc1Cl [Example 58, (S)-1-(2-(5-chloro-2,4-dimethoxyphenyl)imidazo[1,2-a]pyrimidin-7-yl)-pyrrolidin-3-amine hydrochloride]
- IC50 ([1]; HCT-116, 72 h): 9.4 µM
- IC50 ([2]; CCD-18Co, 72 h): 13 µM
- IC50 ([3]; HFL1, 72 h): 6.2 µM
- IC50 ([4]; A549, 72 h): 14 µM
- IC50 [5]: 0.0296 µM

Compound: COc1cc(OC)c(-c2cn3ccc(N)nc3n2)cc1Br [Example 2, 2-(5-bromo-2,4-dimethoxyphenyl)imidazo[1,2-a]pyrimidin-7-amine hydrochloride]
- IC50 ([1]; HCT-116, 72 h): 17 µM
- IC50 ([2]; CCD-18Co, 72 h): 16 µM
- IC50 ([3]; HFL1, 72 h): 16 µM
- IC50 ([4]; A549, 72 h): 18 µM
- IC50 [5]: 0.0169 µM

Compound: COc1cc(OC)c(-c2cn3ccc(N4CCC(CN)CC4)cc3n2)cc1Cl [Example 16, (1-(2-(5-Chloro-2,4-dimethoxyphenyl)imidazo[1,2-a]pyridin-7-yl)piperidin-4-yl)-methanamine hydrochloride]
- IC50 ([1]; HCT-116, 72 h): 8.7 µM
- IC50 ([2]; CCD-18Co, 72 h): 14 µM
- IC50 ([3]; HFL1, 72 h): 11 µM
- IC50 ([4]; A549, 72 h): 8.8 µM
- IC50 [5]: 0.0122 µM

Compound: COc1cc(OCCCN(C)C)c(-c2cn3ccc(N4CCOCC4)cc3n2)cc1Cl [Example 85, 3-(4-chloro-5-methoxy-2-(7-morpholinoimidazo[1,2-a]pyridin-2-yl)-phenoxy)-N,N-dimethylpropan-1-amine]
- IC50 [1, 6]: 9 µM
- IC50 [2, 7]: 7.9 µM
- IC50 [3, 8]: 3.5 µM
- IC50 [4, 9]: 8.7 µM
- IC50 ([5]; enzyme assay): 0.0338 µM

Compound: COc1cc(OC)c(-c2cn3ccc(N4CCOCC4)cc3n2)cc1F [Example 87, 4-(2-(5-fluoro-2,4-dimethoxyphenyl)imidazo[1,2-a]pyridin-7-yl)morpholine hydrobromide]
- IC50 [1, 6]: 2.3 µM
- IC50 [2, 7]: 5.6 µM
- IC50 [3, 8]: 4 µM
- IC50 [4, 9]: 3.3 µM
- IC50 ([5]; enzyme assay): 0.032 µM

Compound: COc1cc(OC)c(-c2cn3ccc(C4CCC(=O)CC4)cc3n2)cc1Cl [Example 119, 4-(2-(5-chloro-2,4-dimethoxyphenyl)imidazo[1,2-a]pyridin-7-yl)-cyclohexanone]
- IC50 ([1]; HCT-116, 72 h): 9.7 µM
- IC50 ([2]; CCD-18Co, 72 h): 3.6 µM
- IC50 ([3]; HFL1, 72 h): 3.5 µM
- IC50 ([4]; A549, 72 h): 5.8 µM
- IC50 ([5]; enzyme assay): 0.0429 µM

Compound: COc1cc(OC)c(-c2cn3ccc(N4CC[C@@H](N)C4)nc3n2)cc1Cl [Example 55, (R)-1-(2-(5-Chloro-2,4-dimethoxyphenyl)imidazo[1,2-a]pyrimidin-7-yl)pyrrolidin-3-amine hydrochloride]
- IC50 ([1]; HCT-116, 72 h): 10 µM
- IC50 ([2]; CCD-18Co, 72 h): 14 µM
- IC50 ([3]; HFL1, 72 h): 4.8 µM
- IC50 ([4]; A549, 72 h): 12 µM
- IC50 [5]: 0.0262 µM

Compound: COc1cc(OC)c(-c2cn3ccc(C4=CCN(CC#N)CC4)cc3n2)cc1Cl [Example 111, 2-(4-(2-(5-chloro-2,4-dimethoxyphenyl)imidazo[1,2-a]pyridin-7-yl)-5,6-dihydropyridin-1(2H)-yl)acetonitrile]
- IC50 [1, 6]: 3.5 µM
- IC50 [2, 7]: 4.8 µM
- IC50 [3, 8]: 1.9 µM
- IC50 [4, 9]: 3.3 µM
- IC50 ([5]; enzyme assay): 0.0614 µM

Compound: COc1cc(OC)c(-c2cn3ccc(N4CCN(CCNC(=O)OC(C)(C)C)CC4)cc3n2)cc1Cl [Example 28, tert-butyl (2-(4-(2-(5-chloro-2,4-dimethoxyphenyl)imidazo[1,2-a]pyridin-7-yl)piperazin-1-yl)ethyl)carbamate dihydrochloride]
- IC50 [1, 6]: 2.8 µM
- IC50 [2, 7]: 4 µM
- IC50 [3, 8]: 3.4 µM
- IC50 [4, 9]: 3.6 µM
- IC50 ([5]; enzyme assay): 0.021 µM

Compound: COc1cc(OC)c(-c2cn3cc(CCCCN)c(N4CCOCC4)cc3n2)cc1Cl [Example 114, 4-(2-(5-chloro-2,4-dimethoxyphenyl)-7-morpholinoimidazo[1,2-a]pyridin-6-yl)butan-1-amine]
- IC50 [1, 6]: 7.9 µM
- IC50 [2, 7]: 8.9 µM
- IC50 [3, 8]: 6.2 µM
- IC50 [4, 9]: 8.7 µM
- IC50 ([5]; enzyme assay): 0.0502 µM

Compound: COc1cc(OC)c(-c2cn3ccc(C4=CCC5(CC4)OCCO5)cc3n2)cc1Cl [Example 117, 2-(5-chloro-2,4-dimethoxyphenyl)-7-(1,4-dioxaspiro[4.5]dec-7-en-8-yl)-imidazo[1,2-a]pyridine]
- IC50 [1, 6]: 3 µM
- IC50 [2, 7]: 7.7 µM
- IC50 [3, 8]: 5.2 µM
- IC50 [4, 9]: 3.5 µM
- IC50 ([5]; enzyme assay): 0.0633 µM

Compound: COc1cc(OC(C)C)c(-c2cn3ccc(N4CC[C@H](N)C4)cc3n2)cc1Br [Example 59, (S)-1-(2-(5-bromo-2-isopropoxy-4-methoxyphenyl)imidazo[1,2-a]pyridin-7-yl)pyrrolidin-3-amine hydrochloride]
- IC50 ([1]; HCT-116, 72 h): 2.6 µM
- IC50 ([2]; CCD-18Co, 72 h): 3.7 µM
- IC50 ([3]; HFL1, 72 h): 1.8 µM
- IC50 ([4]; A549, 72 h): 3.4 µM
- IC50 [5]: 0.0112 µM

Compound: COc1cc(OC)c(-c2cn3ccc(N4CCC(CN)CC4)nc3n2)cc1Cl [Example 31, (1-(2-(5-chloro-2,4-dimethoxyphenyl)imidazo[1,2-a]pyrimidin-7-yl)piperidin-4-yl)methanamine hydrochloride]
- IC50 ([1]; HCT-116, 72 h): 22 µM
- IC50 ([2]; CCD-18Co, 72 h): 23 µM
- IC50 ([3]; HFL1, 72 h): 9.3 µM
- IC50 ([4]; A549, 72 h): 18 µM
- IC50 [5]: 0.0489 µM

Compound: COc1cc(OC)c(-c2cn3ccc(C4CCNCC4)cc3n2)cc1Cl [Example 112, 2-(5-chloro-2,4-dimethoxyphenyl)-7-(piperidin-4-yl)imidazo[1,2-a]pyridine]
- IC50 [1, 6]: 7.5 µM
- IC50 [2, 7]: 8.8 µM
- IC50 [3, 8]: 6.7 µM
- IC50 [4, 9]: 6.3 µM
- IC50 ([5]; enzyme assay): 0.0623 µM
